Measurements as given in patent US20210392882A1, “METHODS AND COMPOSITIONS FOR IMPROVED INSECT REPELLENCY” (Board of Trustees of Michigan State University, priority 2020, published 2021).

System: mosquito sodium channel (AaNav1-1)
Test: Two-electrode voltage clamp of sodium channels expressed in Xenopus oocytes
Type: cell-based, Aedes aegypti
Details: 20 ms step-depolarization before and after exposure; FIG. 4J
Excerpt: FIG. 4A-4J illustrate that pyrethrin-induced repellency is synergized by (E)-β-farnesene via activation of both AaOr31 and sodium channels. […] FIG. 4B graphically illustrates repellency elicited by pyrethrin I (P-I) and pyrethrin II (P-II) at 10^−3 dilution in Orlando (wild-type) and orco^−/− mosquitoes (n=9 cages for Orlando control from 2 batches of mosquitoes; n=10 cages for orco−/− control from 2 batches of mosquitoes, P-I: U=31, n=11 cages for Orlando; and n=12 cages for orco−/− from 3 batches of mosquitoes, P-II: U=15; n=14 cages for Orlando; and n=15 cages for orco−/− from 4 batches of mosquitoes). […] The effect of pyrethrum was measured 10 minutes after its application. Pyrethrum-induced tail currents were recorded during a 100-pulse train of 5 milliseconds step depolarizations from −120 to −10 mV with 5 milliseconds inter-pulse intervals (Du et al. (2013)). The percentage of pyrethrum-modified channels was calculated using the following equation: M=[Itail/(Eh−ENa)]/[INa/(Et−ENa)]×100; where Itail is the maximal tail current amplitude, Eh is the potential to which the membrane is repolarized, ENa is the reversal potential for sodium currents determined from the current-voltage curve, INa is the amplitude of the peak current during depolarization before pyrethrum exposure, and Et is the potential of the step depolarization. […]

CC1(C)C2CCC1(C)C(O)C2 (single isomer, unassigned; (-)) [(−)-borneol]
effect on peak current and channel gating: no effects
